Source: patent publication US20170224647A1, “NEW MDR1 INHIBITORS FOR OVERCOMING MULTIDRUG RESISTANCE” (UNIVERSITA' DEGLI STUDI DI PARMA, priority 2014, published 2017)

What was measured:
SKMES cells = assay: Intracellular doxorubicin by confocal microscope; assay type: cell-based, human
Description: SKMES cells were seeded on cover glasses and incubated with culture medium in a thermostat for 24 h. […]
Images were taken by using a confocal microscope (LSM 510 Meta scan integrated with a reversed microscope Carl Zeiss, Jena Germany), with a 43×/1.30 oil immersion lens.
Fluorescence of doxorubicin was excited with a 488 nm argon laser and its emission was collected by a 530 nm filter. During the analysis of the various samples, the confocal settings (excitation, laser power, detection range, and pinhole size) were kept unaltered.

ABCG1 = biological target: T1, ABCG1 (Homo sapiens, UniProt P45844); assay: ABCG1-mediated cholesterol outflow; assay type: cell-based, hamster; details: CHO-L3 over-expressing ABCG1 vs CHO-K1, HDL acceptor; FIG. 5A
T1 construct: expressed in transfected cells; host or cells: CHO-L3 (derived from hamster ovary CHO-K1, which serves as control)
Description: In order to assess the ABCG1-mediated outflow, control hamster ovary cells CHO-K1 and CHO-L3 over-expressing the ABCG1 protein in Ham's medium F12 with 10% FBS were seeded in parallel in sterile 24-well plates. After 24 h, both cell lines were labeled with 10% FBS medium containing 1 μCi/ml [3H]-cholesterol. At the end of the labelling period (24 h), both cell lines were washed with PBS and equilibrated during 90 minutes with medium supplemented with 0.2% albumin. At the end of the equilibration, the cells were treated in the absence or presence of our compound AIF1 during 2 hours, and incubated for the next 6 hours e with the cholesterol acceptors, HDLs, at a concentration of 12.5 μg/ml. The quantification of the tritiated cholesterol secreted by the cells in the medium was determined as described in the previous paragraph. In particular, the contribution of the ABCG1 transporter to the cholesterol outflow was calculated as the difference between the outflow percentages obtained from the cell line CHO-L3 over-expressing ABCG1 and those obtained from the control cell line CHO-K1. Each experimental condition was carried out in triplicates, and data was expressed as mean±standard deviation.

tumoral cell = assay: Intracellular concentration of doxorubicin by LC-MS/MS; assay type: cell-based; details: after AIF1 treatment compared to untreated cells; FIG. 8
Description: The intracellular content of Doxorubicin and AIF-1 may be determined by liquid chromatography-tandem mass spectrometry (LC-MS/MS) of samples extracted with absolute ethanol. In particular, after the treatment with the drugs, the culture medium is removed, and 3 washings of the cell monolayer with PBS are carried out. Then, the cells are incubated for ten minutes at room temperature with absolute ethanol, which is then analyzed by a LC-MS/MS technique. Values were normalized for the protein content assessed after solubilization of the cell monolayer with 0.5N NaOH and are expressed as pmoles/mg proteins.
Doxorubicin and AIF-1 concentrations in the samples of cell extracts were determined by liquid chromatography-tandem mass spectrometry (LCMS/MS) by using a mass spectrometer.
The samples extracted in ethanol were filtered on a 0.2 μm cellulose filter and analyzed by liquid chromatography-tandem mass spectrometry (LC-MS/MS). […]
The full scan mass spectra were recorded in the 250-900 m/z range, using a 0.1 stepsize and 1 s scan time in the positive ion mode for doxorubicin and atenolol (ATN, used as the internal standard) and in the negative ion mode for AIF1. […]

ABCG2 = biological target: T2, ABCG2 (Homo sapiens, UniProt Q9UNQ0); assay: ABCG2-mediated outflow of fluorescent Hoechst in H460 cells; assay type: cell-based; details: H460 cells over-expressing ABCG2; FIG. 4
T2 construct: a model of human lung adenocarcinoma (H460) over-expressing such receptor; endogenous in cells; host or cells: H460 (human lung carcinoma)
T2 sequence (Q9UNQ0 1-655): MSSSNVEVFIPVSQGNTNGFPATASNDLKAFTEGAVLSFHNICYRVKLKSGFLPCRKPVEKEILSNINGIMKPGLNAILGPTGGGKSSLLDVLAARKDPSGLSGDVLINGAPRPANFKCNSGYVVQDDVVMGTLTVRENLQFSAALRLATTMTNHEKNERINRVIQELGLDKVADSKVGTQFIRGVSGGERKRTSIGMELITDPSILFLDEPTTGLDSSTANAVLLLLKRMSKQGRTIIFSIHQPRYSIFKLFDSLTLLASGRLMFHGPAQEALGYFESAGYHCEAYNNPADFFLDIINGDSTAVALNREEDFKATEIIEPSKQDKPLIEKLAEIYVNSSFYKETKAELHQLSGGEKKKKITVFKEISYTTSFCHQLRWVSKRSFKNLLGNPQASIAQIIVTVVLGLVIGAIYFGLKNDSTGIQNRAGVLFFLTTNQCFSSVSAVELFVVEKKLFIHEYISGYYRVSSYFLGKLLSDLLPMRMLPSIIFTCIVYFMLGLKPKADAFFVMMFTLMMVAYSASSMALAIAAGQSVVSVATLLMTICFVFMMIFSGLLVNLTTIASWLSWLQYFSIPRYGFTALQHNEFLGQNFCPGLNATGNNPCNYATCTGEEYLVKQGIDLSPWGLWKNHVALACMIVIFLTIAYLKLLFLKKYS
Description: (§1) Once the growth medium has been removed from the cells, a PBS washing at 37° C. is carried out, and RPMI without phenol red containing antibiotics is added, 5% FCS, 10 mM HEPES and 2mM Glutamine in the presence/absence of Calcein AM or 1 μM Hoechst and possible inhibitors are added. At the end of the loading, two washings with cold PBS are carried out, RPMI without Calcein AM or Hoechst is added, and samples are read by using the fluorescence plate reader (Enspire, Perkin Elmer; A of excitation: 360 nm; λ of emission: 465 nm). The value provided by the instrument is proportional to the intracellular concentration of Calcein AM and Hoechst. Finally, the cells are treated with 5% TCA, followed by 0.5 N NaOH to solubilize the cells. The protein content is determined by the Bradford method, and it is used for normalizing the uptake values of Calcein AM and Hoechst. The accumulation of Calcein or Hoechst is therefore expressed as the fluorescence intensity/mg proteins.

MDR1 [1] = biological target: T3, MDR1 (Homo sapiens, UniProt P08183); assay: MDR1-mediated accumulation of fluorescent calcein in A549 cells; assay type: cell-based; details: A549 human lung adenocarcinoma cells; FIG. 3A
T3 construct: lung squamous-cell carcinoma (SKMES) expressing high levels of MDR1 on the plasma membrane; endogenous in cells; host or cells: SKMES (lung squamous-cell carcinoma)
T3 sequence (P08183 whole entry): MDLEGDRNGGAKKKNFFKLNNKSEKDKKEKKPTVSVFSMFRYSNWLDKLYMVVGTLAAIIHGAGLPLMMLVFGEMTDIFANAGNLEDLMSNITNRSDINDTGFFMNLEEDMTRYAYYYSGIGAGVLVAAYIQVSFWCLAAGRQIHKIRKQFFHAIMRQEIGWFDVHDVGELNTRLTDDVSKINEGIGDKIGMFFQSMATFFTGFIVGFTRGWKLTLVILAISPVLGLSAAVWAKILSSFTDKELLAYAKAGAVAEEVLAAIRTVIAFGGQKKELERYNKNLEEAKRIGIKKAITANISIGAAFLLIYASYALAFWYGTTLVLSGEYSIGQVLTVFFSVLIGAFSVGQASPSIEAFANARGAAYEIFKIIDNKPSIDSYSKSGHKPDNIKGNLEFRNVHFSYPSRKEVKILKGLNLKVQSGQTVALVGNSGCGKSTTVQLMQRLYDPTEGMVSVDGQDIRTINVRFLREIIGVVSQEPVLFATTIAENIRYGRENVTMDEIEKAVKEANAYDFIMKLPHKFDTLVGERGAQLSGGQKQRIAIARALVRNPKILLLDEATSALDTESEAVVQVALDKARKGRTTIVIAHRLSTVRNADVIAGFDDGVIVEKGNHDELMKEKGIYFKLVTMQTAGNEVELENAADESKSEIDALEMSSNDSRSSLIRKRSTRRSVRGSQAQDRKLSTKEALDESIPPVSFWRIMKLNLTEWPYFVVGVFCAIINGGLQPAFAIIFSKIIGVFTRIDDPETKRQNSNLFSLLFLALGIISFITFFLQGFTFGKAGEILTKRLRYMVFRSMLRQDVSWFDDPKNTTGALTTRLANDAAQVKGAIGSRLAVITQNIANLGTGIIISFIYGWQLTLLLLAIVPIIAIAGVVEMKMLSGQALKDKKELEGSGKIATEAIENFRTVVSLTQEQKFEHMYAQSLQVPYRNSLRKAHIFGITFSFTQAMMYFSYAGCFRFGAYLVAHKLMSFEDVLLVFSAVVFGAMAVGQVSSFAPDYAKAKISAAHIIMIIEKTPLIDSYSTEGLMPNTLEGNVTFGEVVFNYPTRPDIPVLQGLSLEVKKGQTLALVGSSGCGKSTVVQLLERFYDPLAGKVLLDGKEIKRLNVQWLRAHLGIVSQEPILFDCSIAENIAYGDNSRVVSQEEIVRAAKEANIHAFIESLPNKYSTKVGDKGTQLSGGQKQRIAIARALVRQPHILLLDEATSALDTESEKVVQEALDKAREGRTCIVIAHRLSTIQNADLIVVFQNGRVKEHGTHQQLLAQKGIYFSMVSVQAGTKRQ
Description: (§2) The lung carcinoma cell lines A549 and SKMES are grown in RPMI, supplemented with 10% fetal calf serum (FCS), 2 mM glutamine (Gln), and antibiotics (Penicillin 100 UI/ml and Streptomycin 100 μg/ml). Cells are kept in a thermostat at a temperature of 37° C., in air saturated with water vapor, enriched with 5% CO2.
as §1

MDR1 [2] = biological target: T3, MDR1; assay: MDR1-mediated accumulation of fluorescent calcein in SKMES cells; assay type: cell-based; details: SKMES lung squamous-cell carcinoma cells; compared with PSC833; FIG. 3B
Description: as §2, §1

ABCA1 = biological target: T4, ABCA1 (Mus musculus, UniProt P41233); assay: ABCA1-mediated cholesterol outflow; assay type: cell-based; details: murine peritoneal macrophages, apolipoprotein A-I acceptor; FIG. 5B
T4 construct: the expression of the ABCA1 protein on the plasma membrane was stimulated by adding 22-OH cholesterol and 9-cis-retinoic acid; endogenous in cells; host or cells: murine peritoneal macrophages (primary)
T4 sequence (P41233 whole entry): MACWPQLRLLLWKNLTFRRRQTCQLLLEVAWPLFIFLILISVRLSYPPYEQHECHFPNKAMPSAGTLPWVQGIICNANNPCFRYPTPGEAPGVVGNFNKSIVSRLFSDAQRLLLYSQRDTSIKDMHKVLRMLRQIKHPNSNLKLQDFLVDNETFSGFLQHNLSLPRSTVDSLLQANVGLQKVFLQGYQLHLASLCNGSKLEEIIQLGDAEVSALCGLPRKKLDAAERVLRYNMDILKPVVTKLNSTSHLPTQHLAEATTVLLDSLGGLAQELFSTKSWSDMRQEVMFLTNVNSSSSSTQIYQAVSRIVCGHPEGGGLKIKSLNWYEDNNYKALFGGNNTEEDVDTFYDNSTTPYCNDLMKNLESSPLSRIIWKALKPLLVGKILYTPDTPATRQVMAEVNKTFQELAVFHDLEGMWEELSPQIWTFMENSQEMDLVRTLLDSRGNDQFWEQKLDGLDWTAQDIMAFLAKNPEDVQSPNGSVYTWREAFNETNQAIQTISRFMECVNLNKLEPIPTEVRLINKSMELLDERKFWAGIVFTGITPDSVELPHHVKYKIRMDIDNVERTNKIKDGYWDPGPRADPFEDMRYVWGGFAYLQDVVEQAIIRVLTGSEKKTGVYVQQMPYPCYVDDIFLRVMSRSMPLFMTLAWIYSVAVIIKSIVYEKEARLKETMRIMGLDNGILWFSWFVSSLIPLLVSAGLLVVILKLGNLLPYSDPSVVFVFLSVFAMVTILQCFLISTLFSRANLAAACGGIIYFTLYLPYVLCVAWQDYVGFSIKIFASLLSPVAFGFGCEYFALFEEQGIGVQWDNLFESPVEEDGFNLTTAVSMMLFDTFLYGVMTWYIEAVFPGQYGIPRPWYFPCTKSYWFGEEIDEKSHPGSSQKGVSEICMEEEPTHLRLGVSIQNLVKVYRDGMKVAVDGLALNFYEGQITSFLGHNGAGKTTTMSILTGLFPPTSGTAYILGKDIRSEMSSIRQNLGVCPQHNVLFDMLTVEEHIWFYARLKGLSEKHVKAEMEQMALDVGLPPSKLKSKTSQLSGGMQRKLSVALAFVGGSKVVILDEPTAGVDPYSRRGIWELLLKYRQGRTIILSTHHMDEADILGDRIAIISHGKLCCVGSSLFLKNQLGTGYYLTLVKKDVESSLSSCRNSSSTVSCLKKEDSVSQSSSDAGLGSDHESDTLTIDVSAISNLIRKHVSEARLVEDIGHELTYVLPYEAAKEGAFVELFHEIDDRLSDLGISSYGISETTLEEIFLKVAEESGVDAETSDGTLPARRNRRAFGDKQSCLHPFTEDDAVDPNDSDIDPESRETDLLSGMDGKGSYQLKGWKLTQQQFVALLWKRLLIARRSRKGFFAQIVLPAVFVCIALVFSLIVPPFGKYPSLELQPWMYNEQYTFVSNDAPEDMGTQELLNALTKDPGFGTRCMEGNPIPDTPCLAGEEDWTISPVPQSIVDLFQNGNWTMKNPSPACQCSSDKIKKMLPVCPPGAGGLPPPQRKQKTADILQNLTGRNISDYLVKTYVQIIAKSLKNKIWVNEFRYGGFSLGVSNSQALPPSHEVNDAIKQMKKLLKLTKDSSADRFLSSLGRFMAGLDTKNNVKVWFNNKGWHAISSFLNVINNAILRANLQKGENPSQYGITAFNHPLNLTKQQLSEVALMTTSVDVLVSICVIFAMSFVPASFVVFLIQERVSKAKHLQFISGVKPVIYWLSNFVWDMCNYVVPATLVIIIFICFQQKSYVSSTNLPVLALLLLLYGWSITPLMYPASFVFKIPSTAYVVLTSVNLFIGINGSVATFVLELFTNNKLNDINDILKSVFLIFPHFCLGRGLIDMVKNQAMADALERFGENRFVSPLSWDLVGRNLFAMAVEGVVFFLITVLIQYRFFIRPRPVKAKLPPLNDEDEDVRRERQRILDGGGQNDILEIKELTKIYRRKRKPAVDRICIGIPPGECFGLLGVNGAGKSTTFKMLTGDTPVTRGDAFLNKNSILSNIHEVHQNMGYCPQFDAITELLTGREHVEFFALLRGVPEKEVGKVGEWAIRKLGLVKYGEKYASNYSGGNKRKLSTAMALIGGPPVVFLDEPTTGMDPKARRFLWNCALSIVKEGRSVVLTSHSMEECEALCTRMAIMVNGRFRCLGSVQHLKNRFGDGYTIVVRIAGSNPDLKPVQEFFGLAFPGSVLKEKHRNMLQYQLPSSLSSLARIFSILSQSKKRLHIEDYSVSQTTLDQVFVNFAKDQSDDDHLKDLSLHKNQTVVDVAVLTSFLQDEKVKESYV
Description: Murine peritoneal macrophages were seeded in da 24-well plates, each containing 10^6 cell/well in 10% RPMI of fetal bovine serum (FBS). After 24 h, following a PBS washing, the cells were incubated with radiolabeled medium containing [3H]-cholesterol at a concentration of 2 μCi/ml in a medium supplemented with FBS 2% in the presence of the inhibitor of the esterifying enzyme ACAT (SAH58035) at a final concentration of 2 μg/ml in order to maintain all the intracellular cholesterol in the free form and the ABCA1 substrate in the outflow process. At the completion of the 24-hour staining, after the PBS washing, the cells were incubated with an equilibration medium composed of RPMI, 0.2% albumin, and the ACAT inhibitor. […] The filtered medium was collected and transferred into a vial, together with the scintillation liquid for the subsequent reading at the β-counter for the measurement of the radioactivity present in the cultural medium, which is an index of the free cholesterol excreted by the cells. The outflow percentage is calculated on the total radioactivity which is present in the cell by the following formula: % outflow=(average cpm/total cpm of the monolayer)×100. Each experimental condition was carried out in triplicates, and data was expressed as mean±standard deviation.

## CC(C)(Sc1cc(C(C)(C)C)c(OC(=O)CCC(=O)O)c(C(C)(C)C)c1)Sc1cc(C(C)(C)C)c(OC(=O)CCC(=O)O)c(C(C)(C)C)c1 [AIF1]
SKMES cells; after 60 and 90 minutes of doxorubicin in the presence of AIF1, FIGS. 7B, 7C
  intracellular fluorescent signal of doxorubicin: remains almost unaltered
SKMES cells; after 30 minutes doxorubicin, vs cells not treated with the compound, FIG. 7A
  intracellular fluorescent signal of doxorubicin: considerably increased
ABCG1
  outflow of cholesterol mediated by ABCG1: does not show any effect
Tumoral cell
  concentration of intracellular doxorubicin: significantly higher
ABCG2
  accumulation/extrusion of fluorescent Hoechst (ABCG2 substrate): did not show any effect
MDR1 [1]
  intracellular concentration of calcein (MDR1-mediated cell outflow of fluorescent calcein): significantly and dose-dependent increases
MDR1 [2]
  effect on MDR1-mediated accumulation of fluorescent calcein: highly effective
ABCA1
  outflow of cholesterol mediated by ABCA1: does not show any effect
